What was measured:
[1] = tested on: Trypanosoma brucei; assay: Trypanocidal activity against bloodstream forms of Trypanosoma brucei 221 assessed as growth inhibition after 48 hrs by resazurin assay; type: functional, organism-based; settings: Trypanosoma brucei, 221, 48 h
[2] = tested on: L6; assay: Cytotoxicity against rat L6 cells after 6 days by resazurin assay; type: cell-based; settings: L6, 144 h
[3] = Selectivity index, ratio of IC50 for rat L6 cells to IC50 for bloodstream forms of Trypanosoma brucei 221; type: toxicity, cell-based; settings: L6 cells versus bloodstream forms of Trypanosoma brucei 221, read-out: Ratio IC50
[4] = biological target: Acetylcholinesterase (Homo sapiens, UniProt P22303); assay: Inhibition of human recombinant AChE using acetylthiocholine iodide as substrate preincubated for 20 mins by Ellman method
[5] = Effective permeability of the compound by PAMPA assay; type: ADME; settings: read-out: Peff
[6] = tested on: Plasmodium falciparum; assay: Antiplamodial activity against chloroquine-resistant bloodstream forms of Plasmodium falciparum K1 infected in human A+ erythrocytes assessed as growth inhibition after 48 hrs by spectrophotometry; type: functional, organism-based; settings: K1, 48 h

Chain of Acetylcholinesterase (P22303 whole entry): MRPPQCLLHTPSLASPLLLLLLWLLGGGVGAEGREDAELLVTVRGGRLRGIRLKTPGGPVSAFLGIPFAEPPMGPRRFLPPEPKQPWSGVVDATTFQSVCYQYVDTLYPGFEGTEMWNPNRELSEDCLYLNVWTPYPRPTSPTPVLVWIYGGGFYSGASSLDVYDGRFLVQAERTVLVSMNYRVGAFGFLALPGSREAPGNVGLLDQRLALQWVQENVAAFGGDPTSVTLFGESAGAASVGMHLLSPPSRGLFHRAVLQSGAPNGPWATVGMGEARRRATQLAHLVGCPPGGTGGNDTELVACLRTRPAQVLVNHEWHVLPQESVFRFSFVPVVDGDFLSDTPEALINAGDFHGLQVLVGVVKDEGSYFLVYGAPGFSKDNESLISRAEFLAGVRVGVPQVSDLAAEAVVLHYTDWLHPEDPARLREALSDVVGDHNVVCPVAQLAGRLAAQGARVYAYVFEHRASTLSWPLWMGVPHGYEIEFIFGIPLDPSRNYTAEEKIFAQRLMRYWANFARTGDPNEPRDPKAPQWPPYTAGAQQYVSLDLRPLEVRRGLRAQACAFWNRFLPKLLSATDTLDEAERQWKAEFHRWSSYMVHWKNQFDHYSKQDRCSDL

Row | SMILES | IC50 [1] | IC90 [1] | IC50 [2] | selectivity ratio [3] | IC50 [4] | Papp [5] | IC50 [6]
1 | CC1=C[C@H]2Cc3nc4cc(Cl)ccc4c(NCCCCCCNc4c5c(nc6cc(Cl)ccc46)C[C@@H]4C=C(C)C[C@H]5C4)c3[C@@H](C1)C2 | 890 nM | 1090 nM | 1610 nM | 1.8 | 192 nM | 11.1 ×10⁻⁶ cm/s | > 6000 nM
2 | CC1=C[C@H]2Cc3nc4cc(Cl)ccc4c(NCCCCCCCCNc4c5c(nc6cc(Cl)ccc46)C[C@@H]4C=C(C)C[C@H]5C4)c3[C@@H](C1)C2 | 520 nM | 740 nM | 4920 nM | 9.5 | 72.5 nM | 13.9 ×10⁻⁶ cm/s | > 6000 nM
3 | CC1=C[C@H]2Cc3nc4cc(Cl)ccc4c(NCCCCCCCCCCNc4c5c(nc6cc(Cl)ccc46)C[C@@H]4C=C(C)C[C@H]5C4)c3[C@@H](C1)C2 | 500 nM | 730 nM | 7710 nM | 15.4 | 17.5 nM | 8.7 ×10⁻⁶ cm/s | > 6000 nM
4 | CC1=C[C@H]2Cc3nc4cc(Cl)ccc4c(NCCCCCCCCCCCCNc4c5c(nc6cc(Cl)ccc46)C[C@@H]4C=C(C)C[C@H]5C4)c3[C@@H](C1)C2 | 760 nM | 990 nM | 28500 nM | 37.5 | 431 nM | 17.4 ×10⁻⁶ cm/s | > 6000 nM
5 | CC1=C[C@H]2Cc3nc4cc(Cl)ccc4c(NCc4ccc(CNc5c6c(nc7cc(Cl)ccc57)C[C@@H]5C=C(C)C[C@H]6C5)cc4)c3[C@@H](C1)C2 | 570 nM | 750 nM | 16100 nM | 28.2 | – | 8.3 ×10⁻⁶ cm/s | > 6000 nM
6 | C[C@@H]1CC[C@H]2[C@@H](C)C(=O)O[C@@H]3O[C@@]4(C)CC[C@@H]1[C@]32OO4 [ARTEMISININ] | – | – | – | – | – | – | 91 nM
7 | CC1=CC2Cc3nc4cc(Cl)ccc4c(N)c3C(C1)C2 (stereo unspecified) [HUPRINE Y] | – | – | – | – | – | – | > 10000 nM

Reference: ChEMBL document CHEMBL3351941, “Synthesis and antiprotozoal activity of oligomethylene- and p-phenylene-bis(methylene)-linked bis(+)-huprines” (Bioorg Med Chem Lett, 2014)
